Experimental data from US20250114460A1, “NOVEL PLK1 DEGRADATION INDUCING COMPOUND” (UPPTHERA, INC., priority 2021, published 2025).

Target: T1, PLK1 (Homo sapiens, UniProt P53350)
T1 construct: endogenous in cells; host or cells: HeLa LgBit (Plk1-HiBit KI): HeLa stably expressing LgBit, with a CRISPR/Cas9 knock-in of HiBit at the endogenous PLK1 locus
Experiment: Luciferase assay for PLK1 in HeLa LgBit (Plk1-HiBit KI) cell line
Format: cell-based
Details: 300 nM compound, luminescence after 9 hours
Description: 2. Luciferase Assay for PLK1
(1) Preparation and Culture of HeLa LgBit (Plk1-HiBit KI) Cell Line
A HeLa cell line in which the LgBit vector was transfected and expressed stably was prepared. Then, after constructing gRNA and donor to express the HiBit amino acid sequence behind the C-terminal of the Plk1 gene, which was inherent in the cell, it was inserted into the cell together with a vector capable of expressing CRISPR/Cas9. Only the cells in which the insertion was completed and knock-in had progressed were selected, sub-cultured and used.
(2) Treatment of Compounds of the Present Invention and Method of Luciferase Assay
In the case of HeLa LgBit (Plk1-HiBit KI), the compounds were treated after being released after thymidine block, and the process was as follows. Thymidine (Sigma-Aldrich Cat. No. T9250-5G) was completely dissolved in DW and used in the experiment. For thymidine block, the products were treated with 2 mM of thymidine and then incubated for 24 hours. For release and chemical treatment, the medium was suctioned and washed with 1×PBS. TrypLE™ was added and incubated in 37° C. CO2 incubator for 5 min. Cells neutralized by adding complete media were counted through a counter. For each well of a 96-well culture plate (SPL), 3.3×10^4 cells and a total medium volume of 150 μL were seeded and incubated in a CO2 incubator.
Each cell line was incubated in a CO2 incubator for 18 hours, and Endurazine was added to each well to make up 4% of the total volume. After adding the compound of the present invention in a 96-well white plate (SPL) to a concentration of 300 nM, the wavelength of the plate reader (BMG Labtech, CLARIOstar Plus) was set to […], and then the luminescence was tracked in real time.
In Table 2, Activity represents the ratio of the luminescense value of each Exemplary Compound treatment group to DMSO treatment group (+++: <0.3, ++<0.6, +<0.7).

T1 sequence (P53350 whole entry): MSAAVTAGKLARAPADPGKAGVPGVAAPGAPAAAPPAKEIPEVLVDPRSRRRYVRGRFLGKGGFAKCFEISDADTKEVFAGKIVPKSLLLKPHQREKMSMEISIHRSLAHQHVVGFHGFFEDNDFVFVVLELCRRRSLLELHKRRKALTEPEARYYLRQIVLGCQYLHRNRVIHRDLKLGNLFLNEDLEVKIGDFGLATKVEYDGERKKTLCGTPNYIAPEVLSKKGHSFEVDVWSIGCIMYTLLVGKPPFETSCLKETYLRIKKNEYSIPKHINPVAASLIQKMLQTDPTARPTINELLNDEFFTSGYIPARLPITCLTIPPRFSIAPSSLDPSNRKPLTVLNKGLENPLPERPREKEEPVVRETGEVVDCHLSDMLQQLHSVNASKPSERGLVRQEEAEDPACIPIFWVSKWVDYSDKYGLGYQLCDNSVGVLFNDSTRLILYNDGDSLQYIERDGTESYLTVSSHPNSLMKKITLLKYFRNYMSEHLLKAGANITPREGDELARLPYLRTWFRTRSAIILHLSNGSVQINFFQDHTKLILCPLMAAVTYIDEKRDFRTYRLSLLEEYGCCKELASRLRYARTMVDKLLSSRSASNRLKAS

SMILES	Activity: ratio of the luminescense value of each Exemplary Compound treatment group to DMSO treatment group
COc1cc(C(=O)N2CCC(CN3CCN(c4cccc5c4C(=O)N(C4CCC(=O)NC4=O)C5=O)CC3)CC2)ccc1Nc1ncc2c(n1)N(C1CCCC1)CC(F)(F)C(=O)N2C (stereo not drawn) [Compound 93, 4-(4-((1-(4-((9-cyclopentyl-7,7-difluoro-5-methyl-6-oxo-6,7,8,9-tetrahydro-5H-pyrimido[4,5-b][1,4]diazepin-2-yl)amino)-3-methoxybenzoyl)piperidin-4-yl)methyl)piperazin-1-yl)-2-(2,6-dioxopiperidin-3-yl)isoindoline-1,3-dione]	++ (++<0.6)
COc1cc(C(=O)N2CCC(CCCN3CCN(c4cccc5c4C(=O)N(C4CCC(=O)NC4=O)C5=O)CC3)CC2)ccc1Nc1ncc2c(n1)N(C1CCCC1)CC(F)(F)C(=O)N2C (stereo not drawn) [Compound 95, 4-(4-(3-(1-(4-((9-cyclopentyl-7,7-difluoro-5-methyl-6-oxo-6,7,8,9-tetrahydro-5H-pyrimido[4,5-b][1,4]diazepin-2-yl)amino)-3-methoxybenzoyl)piperidin-4-yl)propyl)piperazin-1-yl)-2-(2,6-dioxopiperidin-3-yl)isoindoline-1,3-dione]	++ (++<0.6)
COc1cc(C(=O)N2CCC(CCCCN3CCN(c4cccc5c4C(=O)N(C4CCC(=O)NC4=O)C5=O)CC3)CC2)ccc1Nc1ncc2c(n1)N(C1CCCC1)CC(F)(F)C(=O)N2C (stereo not drawn) [Compound 96, 4-(4-(4-(1-(4-((9-cyclopentyl-7,7-difluoro-5-methyl-6-oxo-6,7,8,9-tetrahydro-5H-pyrimido[4,5-b][1,4]diazepin-2-yl)amino)-3-methoxybenzoyl)piperidin-4-yl)butyl)piperazin-1-yl)-2-(2,6-dioxopiperidin-3-yl)isoindoline-1,3-dione]	++ (++<0.6)
COc1cc(C(=O)N2CCC(CCCCN3CCN(c4ccc5c(c4)C(=O)N(C4CCC(=O)NC4=O)C5=O)CC3)CC2)ccc1Nc1ncc2c(n1)N(C1CCCC1)CC(F)(F)C(=O)N2C (stereo not drawn) [Compound 100, 5-(4-(4-(1-(4-((9-cyclopentyl-7,7-difluoro-5-methyl-6-oxo-6,7,8,9-tetrahydro-5H-pyrimido[4,5-b][1,4]diazepin-2-yl)amino)-3-methoxybenzoyl)piperidin-4-yl)butyl)piperazin-1-yl)-2-(2,6-dioxopiperidin-3-yl)isoindoline-1,3-dione]	++ (++<0.6)
COc1cc(C(=O)N2CCC(CN3CCN(c4cc5c(cc4F)C(=O)N(C4CCC(=O)NC4=O)C5=O)CC3)CC2)ccc1Nc1ncc2c(n1)N(C1CCCC1)CC(F)(F)C(=O)N2C (stereo not drawn) [Compound 101, 5-(4-((1-(4-((9-cyclopentyl-7,7-difluoro-5-methyl-6-oxo-6,7,8,9-tetrahydro-5H-pyrimido[4,5-b][1,4]diazepin-2-yl)amino)-3-methoxybenzoyl)piperidin-4-yl)methyl)piperazin-1-yl)-2-(2,6-dioxopiperidin-3-yl)-6-fluoroisoindoline-1,3-dione]	++ (++<0.6)
COc1cc(C(=O)NC2CC(N(C)CC3CCN(c4ccc5c(c4)C(=O)N(C4CCC(=O)NC4=O)C5=O)CC3)C2)ccc1Nc1ncc2c(n1)N(C1CCCC1)CC(F)(F)C(=O)N2C (stereo not drawn) [Compound 104, 4-((9-cyclopentyl-7,7-difluoro-5-methyl-6-oxo-6,7,8,9-tetrahydro-5H-pyrimido[4,5-b][1,4]diazepin-2-yl)amino)-N-(3-(((1-(2-(2,6-dioxopiperidin-3-yl)-1,3-dioxoisoindolin-5-yl)piperidin-4-yl)methyl)(methyl)amino)cyclobutyl)-3-methoxybenzamide]	++ (++<0.6)
COc1cc(C(=O)NC2CC(N(C)CC3CCN(c4cccc5c4C(=O)N(C4CCC(=O)NC4=O)C5=O)CC3)C2)ccc1Nc1ncc2c(n1)N(C1CCCC1)CC(F)(F)C(=O)N2C (stereo not drawn) [Compound 105, 4-((9-cyclopentyl-7,7-difluoro-5-methyl-6-oxo-6,7,8,9-tetrahydro-5H-pyrimido[4,5-b][1,4]diazepin-2-yl)amino)-N-(3-(((1-(2-(2,6-dioxopiperidin-3-yl)-1,3-dioxoisoindolin-4-yl)piperidin-4-yl)methyl)(methyl)amino)cyclobutyl)-3-methoxybenzamide]	++ (++<0.6)
COc1cc(N2CCC(CN3CCN(c4ccc5c(c4)C(=O)N(C4CCC(=O)NC4=O)C5=O)CC3)CC2)c(F)cc1Nc1ncc2c(n1)N(C1CCCC1)CC(F)(F)C(=O)N2C (stereo not drawn) [Compound 111, 5-(4-((1-(4-((9-cyclopentyl-7,7-difluoro-5-methyl-6-oxo-6,7,8,9-tetrahydro-5H-pyrimido[4,5-b][1,4]diazepin-2-yl)amino)-2-fluoro-5-methoxyphenyl)piperidin-4-yl)methyl)piperazin-1-yl)-2-(2,6-dioxopiperidin-3-yl)isoindoline-1,3-dione]	+ (+<0.7)
COc1cc(N2CCC(CCN3CCN(c4ccc5c(c4)C(=O)N(C4CCC(=O)NC4=O)C5=O)CC3)CC2)c(F)cc1Nc1ncc2c(n1)N(C1CCCC1)CC(F)(F)C(=O)N2C (stereo not drawn) [Compound 112, 5-(4-(2-(1-(4-((9-cyclopentyl-7,7-difluoro-5-methyl-6-oxo-6,7,8,9-tetrahydro-5H-pyrimido[4,5-b][1,4]diazepin-2-yl)amino)-2-fluoro-5-methoxyphenyl)piperidin-4-yl)ethyl)piperazin-1-yl)-2-(2,6-dioxopiperidin-3-yl)isoindoline-1,3-dione]	+ (+<0.7)
COc1cc(C(=O)N[C@H]2CC[C@H](OC3CCN(c4ccc5c(c4)C(=O)N(C4CCC(=O)NC4=O)C5=O)CC3)CC2)c(F)cc1Nc1ncc2c(n1)N(C1CCCC1)CC(F)(F)C(=O)N2C (stereo partly drawn) [Compound 116, 4-((9-cyclopentyl-7,7-difluoro-5-methyl-6-oxo-6,7,8,9-tetrahydro-5H-pyrimido[4,5-b][1,4]diazepin-2-yl)amino)-N-((1r,4r)-4-((1-(2-(2,6-dioxopiperidin-3-yl)-1,3-dioxoisoindolin-5-yl)piperidin-4-yl)oxy)cyclohexyl)-2-fluoro-5-methoxybenzamide]	++ (++<0.6)
COc1cc(C(=O)NC2CCCN(CC3CCN(c4cccc5c4C(=O)N(C4CCC(=O)NC4=O)C5=O)CC3)C2)ccc1Nc1ncc2c(n1)N(C1CCCC1)CC(F)(F)C(=O)N2C (stereo not drawn) [Compound 126, 4-((9-cyclopentyl-7,7-difluoro-5-methyl-6-oxo-6,7,8,9-tetrahydro-5H-pyrimido[4,5-b][1,4]diazepin-2-yl)amino)-N-(1-((1-(2-(2,6-dioxopiperidin-3-yl)-1,3-dioxoisoindolin-4-yl)piperidin-4-yl)methyl)piperidin-3-yl)-3-methoxybenzamide]	+ (+<0.7)
COc1cc(C(=O)Nc2ccc(OCCN3CCN(c4cccc5c4C(=O)N(C4CCC(=O)NC4=O)C5=O)CC3)cc2)c(F)cc1Nc1ncc2c(n1)N(C1CCCC1)CC(F)(F)C(=O)N2C (stereo not drawn) [Compound 141, 4-((9-cyclopentyl-7,7-difluoro-5-methyl-6-oxo-6,7,8,9-tetrahydro-5H-pyrimido[4,5-b][1,4]diazepin-2-yl)amino)-N-(4-(2-(4-(2-(2,6-dioxopiperidin-3-yl)-1,3-dioxoisoindolin-4-yl)piperazin-1-yl)ethoxy)phenyl)-2-fluoro-5-methoxybenzamide]	++ (++<0.6)
